In PubChem BioAssay (NCI):
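Cells were grown in 96-well plates and exposed to each compound for 48 hours at five concentrations; endpoints were interpolated linearly between bracketing concentrations, or set to the highest concentration if not reached. The concentration for 50% growth inhibition is given as GI50. TGI: total growth inhibition.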

Key:
Assay in all cases: growth of human tumour cells (NCI), 48 h
UO-31 renal = tested on: UO-31 renal
NCI-H460 lung = tested on: NCI-H460 lung
SK-OV-3 ovarian = tested on: SK-OV-3 ovarian
SF-268 CNS = tested on: SF-268 CNS
UACC-257 melanoma = tested on: UACC-257 melanoma
RXF 393 renal = tested on: RXF 393 renal
OVCAR-8 ovarian = tested on: OVCAR-8 ovarian
NCI-H522 lung = tested on: NCI-H522 lung
NCI-H226 lung = tested on: NCI-H226 lung
NCI/ADR-RES ovarian = tested on: NCI/ADR-RES ovarian

Row | SMILES | TGI (UO-31 renal) [µM] | TGI (NCI-H460 lung) [µM] | TGI (SK-OV-3 ovarian) [µM] | TGI (SF-268 CNS) [µM] | TGI (UACC-257 melanoma) [µM] | TGI (RXF 393 renal) [µM] | TGI (OVCAR-8 ovarian) [µM] | TGI (NCI-H522 lung) [µM] | TGI (NCI-H226 lung) [µM] | GI50 (UO-31 renal) [µM] | GI50 (NCI-H460 lung) [µM] | GI50 (SK-OV-3 ovarian) [µM] | GI50 (SF-268 CNS) [µM] | GI50 (UACC-257 melanoma) [µM] | GI50 (NCI/ADR-RES ovarian) [µM] | TGI (NCI/ADR-RES ovarian) [µM] | GI50 (OVCAR-8 ovarian) [µM] | GI50 (NCI-H522 lung) [µM] | GI50 (NCI-H226 lung) [µM] | GI50 (RXF 393 renal) [µM]
1 | CC(C)N(C(=O)C12C3C4C5(C#N)C3C1(I)C5C42I)C(C)C (stereo not given) | > 100 | > 100 | > 100 | > 100 | > 100 | > 100 | > 100 | > 100 | > 100 | – | – | – | – | – | – | – | – | – | – | –
2 | COC(=O)C1CC(C(=O)OC)c2nc3cc(C)ccc3nc21 (stereo not given) | > 100 | > 100 | > 100 | > 100 | > 100 | – | > 100 | > 100 | > 100 | – | – | – | – | – | – | – | – | – | – | –
3 | OCCCCC#Cc1ccccc1C#Cc1ccccc1 | > 100 | 62.6 | 26.7 | 37.6 | 43.8 | – | 59.5 | > 100 | 35.3 | 28.4 | 22.4 | 10.7 | 16.8 | 19.4 | 17 | 47.3 | 24.5 | 27 | 16.2 | –
4 | CC[C@]1(O)CC2CN(CCc3c([nH]c4ccccc34)[C@@](C(=O)OC)(c3cc4c(cc3OC)N(C)[C@H]3[C@@](O)(C(=O)OC)[C@H](OC(C)=O)[C@]5(CC)C=CCN6CC[C@]43[C@@H]65)C2)C1 (stereo not given in full) | 15.9 | 5.8 | 0.00977 | 8.08 | – | – | > 34.6 | 0.00536 | 0.148 | 0.511 | < 0.005 | < 0.005 | < 0.005 | – | 0.0912 | 1.06 | < 0.005 | < 0.005 | < 0.005 | –
5 | O=C(O)CNc1c2ccccc2nc2ccccc12 | > 100 | > 100 | > 100 | > 100 | > 100 | > 100 | > 100 | > 100 | > 100 | – | – | – | – | – | – | – | – | – | – | –
6 | CC(CN(CP(=O)([O-])[O-])CP(=O)([O-])[O-])N(CP(=O)([O-])[O-])CP(=O)([O-])[O-].N.N.[Pt+2] (stereo not given) | > 100 | > 100 | > 100 | > 100 | > 100 | > 100 | > 100 | > 100 | > 100 | > 100 | > 100 | > 100 | > 100 | > 100 | – | – | > 100 | > 100 | > 100 | > 100
7 | N#CC(NNC(=O)c1ccccc1O)c1ccc(O)cc1 (stereo not given) | 11.9 | > 100 | > 100 | > 100 | > 100 | 12.2 | > 100 | > 100 | 55.1 | – | – | – | – | – | – | – | – | – | – | –
8 | CCCN(CCCCC(NC(C)=O)C(=O)NCc1ccccc1)C(=O)NCCCl (stereo not given) | > 100 | > 100 | – | > 100 | > 100 | > 100 | > 100 | > 100 | > 100 | – | – | – | – | – | – | – | – | – | – | –
